Laboratory results: publication PMC12523282, “New 5,6-diphenyl-1,2,4-triazine-hydrazineylidene-phenoxy-1,2,3-triazole-acetamide derivatives as potent synthetic α-glucosidase inhibitors” (RSC Advances, 2025)

How the values were obtained:
[1] = target: α-glucosidase; set-up: method as in PMID 31838286; conditions: assay of template compounds B, Fig. 1 and Fig. 5; cited from earlier work
[2] = target: T1, α-glucosidase (Saccharomyces cerevisiae, UniProt P53341); assay: Anti-α-glucosidase assay (p-nitrophenyl-α-D-glucopyranoside substrate, absorbance 405 nm); format: biochemical; conditions: for Inhibation: IC50 determination curve; for inhibition at 750 µM: read-out: In (%), inhibition percentage against α-glucosidase; for decrease of inhibitory activity relative to un-substituted derivative 13a: methyl group added to phenyl ring of 13a; for inhibitory activity, times more potent than acarbose: ratio of IC50 values vs acarbose
T1 construct: the yeast form of α-glucosidase, which was extracted from Saccharomyces cerevisiae; purchased Sigma-Aldrich; host or cells: Saccharomyces cerevisiae (extracted)
T1 sequence (P53341 whole entry): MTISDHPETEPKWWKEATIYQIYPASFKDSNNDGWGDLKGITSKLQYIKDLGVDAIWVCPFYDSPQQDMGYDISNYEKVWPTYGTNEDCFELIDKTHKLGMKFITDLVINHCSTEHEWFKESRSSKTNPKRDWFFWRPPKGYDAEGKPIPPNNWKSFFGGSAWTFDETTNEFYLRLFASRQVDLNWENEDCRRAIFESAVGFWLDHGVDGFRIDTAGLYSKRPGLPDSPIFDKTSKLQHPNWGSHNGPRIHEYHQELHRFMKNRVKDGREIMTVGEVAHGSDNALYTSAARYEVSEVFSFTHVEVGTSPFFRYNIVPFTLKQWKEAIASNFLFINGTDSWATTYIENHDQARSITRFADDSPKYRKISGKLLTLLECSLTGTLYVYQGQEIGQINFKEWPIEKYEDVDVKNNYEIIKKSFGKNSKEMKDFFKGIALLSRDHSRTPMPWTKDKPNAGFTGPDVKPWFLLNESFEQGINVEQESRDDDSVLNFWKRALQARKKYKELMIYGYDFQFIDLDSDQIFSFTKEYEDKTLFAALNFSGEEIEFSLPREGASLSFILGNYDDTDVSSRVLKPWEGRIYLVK
Experimental: After this time, the p-nitrophenyl-α-D-glucopyranoside (25 μL, 4 mM) was added to the latter plate and allowed to incubate at 37 °C for 20 min. […] The percentage of inhibition (% inhibition) for each sample was calculated using the formula “[(Abs control − Abs sample)/Abs control] × 100”, and IC50 values were obtained from non-linear regression curve using the Logit method.[24]

[3] = target: T1, α-glucosidase; assay: Kinetic study (Lineweaver–Burk method); format: biochemical; conditions: Lineweaver–Burk plots
Experimental: Then, p-nitrophenyl-α-D-glucopyranoside at various concentrations (1–4 mM) was added to initiate the enzymatic reaction.
The type of inhibition mode was indicated by Lineweaver–Burk plots.

[4] = IC50 (from IC50 determination curves, supplement), logarithmic fit of inhibition vs Conc., unit inferred
[5] = IC50, yeast α-glucosidase, mean ± SD, at least three experiments

SMILES | IC50 [1] [µM] | Inhibation ([2]; Conc. 15 (unit not given)) | Inhibation ([2]; Conc. 30 (unit not given)) | Inhibation ([2]; Conc. 60 (unit not given)) | Inhibation ([2]; Conc. 90 (unit not given)) | IC50 [2, 4] [µM] | IC50 [2, 5] [µM] | inhibition at 750 µM [2] [%] | Inhibation ([2]; Conc. 120 (unit not given)) | decrease of inhibitory activity relative to un-substituted derivative 13a [2] [fold] | effect of increasing inhibitor concentration on Vmax and Km [3] | type of inhibition mode [3] | inhibitory activity, times more potent than acarbose [2] [fold] | potency relative to 4-methoxy derivative 13f ([2]; more potent than 13f)
O=C(Cn1cc(COc2ccc(-c3nc4ccccc4[nH]3)cc2)nn1)Nc1ccccc1 [B (R = H, n = 0)] | 51.5 | – | – | – | – | – | – | – | – | – | – | – | – | –
COc1ccc(NC(=O)Cn2cc(COc3ccc(/C=N/Nc4nnc(-c5ccccc5)c(-c5ccccc5)n4)cc3)nn2)cc1 [Compound 13f, (E)-2-(4-((4-((2-(5,6-Diphenyl-1,2,4-triazin-3-yl)hydrazineylidene)methyl)phenoxy)methyl)-1H-1,2,3-triazol-1-yl)-N-(4-methoxyphenyl)acetamide] | – | 56 | 72.67 | 89 | 98 | 10.9 | 10.9 ± 0.24 | 100 | – | – | – | – | – | –
O=C(Cn1cc(COc2ccc(-c3nc4ccccc4[nH]3)cc2)nn1)Nc1ccc(Br)cc1 [B (R = 4-Br, n = 0)] | 176 | – | – | – | – | – | – | – | – | – | – | – | – | –
COc1ccc(NC(=O)Cn2cc(COc3ccc(-c4nc5ccccc5[nH]4)cc3)nn2)cc1 [B (R = 4-OMe, n = 0)] | 112 | – | – | – | – | – | – | – | – | – | – | – | – | –
O=C(Cn1cc(COc2ccc(/C=N/Nc3nnc(-c4ccccc4)c(-c4ccccc4)n3)cc2)nn1)Nc1ccccc1F [Compound 13g, (E)-2-(4-((4-((2-(5,6-Diphenyl-1,2,4-triazin-3-yl)hydrazineylidene)methyl)phenoxy)methyl)-1H-1,2,3-triazol-1-yl)-N-(2-fluorophenyl)acetamide] | – | 69.05 | 72.24 | 76 | 78 | < 15 | – | 79 | – | – | – | – | – | –
O=C(Cn1cc(COc2ccc(/C=N/Nc3nnc(-c4ccccc4)c(-c4ccccc4)n3)cc2)nn1)NCc1ccccc1 [Compound 13m, (E)-N-Benzyl-2-(4-((4-((2-(5,6-diphenyl-1,2,4-triazin-3-yl)hydrazineylidene)methyl)phenoxy)methyl)-1H-1,2,3-triazol-1-yl)acetamide] | – | 70 | 80 | 87 | 88.3 | – | – | 90 | 89 | – | – | – | – | –
Cc1cccc(NC(=O)Cn2cc(COc3ccc(/C=N/Nc4nnc(-c5ccccc5)c(-c5ccccc5)n4)cc3)nn2)c1 [Compound 13c, (E)-2-(4-((4-((2-(5,6-Diphenyl-1,2,4-triazin-3-yl)hydrazineylidene)methyl)phenoxy)methyl)-1H-1,2,3-triazol-1-yl)-N-(m-tolyl)acetamide] | – | 74.8 | 80.67 | 93 | 96 | < 15 | – | 100 | 97 | 2.25 | – | – | – | –
O=C(Cn1cc(COc2ccc(/C=N/Nc3nnc(-c4ccccc4)c(-c4ccccc4)n3)cc2)nn1)Nc1ccccc1 [Compound 13a, (E)-2-(4-((4-((2-(5,6-Diphenyl-1,2,4-triazin-3-yl)hydrazineylidene)methyl)phenoxy)methyl)-1H-1,2,3-triazol-1-yl)-N-phenylacetamide] | – | 76.53 | 81.33 | 89 | 93 | < 15 | – | 95 | 94 | – | – | – | – | –
O=C(Cn1cc(COc2ccc(/C=N/Nc3nnc(-c4ccccc4)c(-c4ccccc4)n3)cc2)nn1)Nc1ccc(Cl)cc1 [Compound 13j, (E)-N-(4-Chlorophenyl)-2-(4-((4-((2-(5,6-diphenyl-1,2,4-triazin-3-yl)hydrazineylidene)methyl)phenoxy)methyl)-1H-1,2,3-triazol-1-yl)acetamide] | – | 73.02 | 75.43 | 79 | 81 | < 15 | 0.12 ± 0.02 | 83 | – | – | decrease in both Vmax and Km values | uncompetitive α-glucosidase inhibitor | – | –
O=C(Cn1cc(COc2ccc(-c3nc4ccccc4[nH]3)cc2)nn1)Nc1ccccc1Cl [B (R = 2-Cl, n = 0)] | 70.6 | – | – | – | – | – | – | – | – | – | – | – | – | –
O=C(Cn1cc(COc2ccc(/C=N/Nc3nnc(-c4ccccc4)c(-c4ccccc4)n3)cc2)nn1)Nc1ccccc1Cl [Compound 13h, (E)-N-(2-Chlorophenyl)-2-(4-((4-((2-(5,6-diphenyl-1,2,4-triazin-3-yl)hydrazineylidene)methyl)phenoxy)methyl)-1H-1,2,3-triazol-1-yl)acetamide] | – | 75.34 | 79.31 | 83 | 86 | < 15 | – | 87 | – | – | – | – | ~3947 | –
O=C(Cn1cc(COc2ccc(/C=N/Nc3nnc(-c4ccccc4)c(-c4ccccc4)n3)cc2)nn1)NCCc1ccccc1 [Compound 13n, (E)-2-(4-((4-((2-(5,6-Diphenyl-1,2,4-triazin-3-yl)hydrazineylidene)methyl)phenoxy)methyl)-1H-1,2,3-triazol-1-yl)-N-phenethylacetamide] | – | 79.27 | 84.67 | 90 | 93 | < 15 | – | 100 | 98 | – | – | – | – | –
O=C(Cn1cc(COc2ccc(-c3nc4ccccc4[nH]3)cc2)nn1)Nc1ccccc1[N+](=O)[O-] [B (R = 2-Nitro, n = 0)] | 35 | – | – | – | – | – | – | – | – | – | – | – | – | –
O=C(Cn1cc(COc2ccc(-c3nc4ccccc4[nH]3)cc2)nn1)NCc1ccccc1 [B (R = H, n = 1)] | 121 | – | – | – | – | – | – | – | – | – | – | – | – | –
O=C(Cn1cc(COc2ccc(/C=N/Nc3nnc(-c4ccccc4)c(-c4ccccc4)n3)cc2)nn1)Nc1ccccc1[N+](=O)[O-] [Compound 13l, (E)-2-(4-((4-((2-(5,6-Diphenyl-1,2,4-triazin-3-yl)hydrazineylidene)methyl)phenoxy)methyl)-1H-1,2,3-triazol-1-yl)-N-(2-nitrophenyl)acetamide] | – | 37.76 | 48.45 | 59 | 65 | 34.2 | 34.2 ± 0.57 | 69 | 67 | – | – | – | 21.9 | –
O=C(Cn1cc(COc2ccc(/C=N/Nc3nnc(-c4ccccc4)c(-c4ccccc4)n3)cc2)nn1)Nc1cccc(Cl)c1 [Compound 13i, (E)-N-(3-Chlorophenyl)-2-(4-((4-((2-(5,6-diphenyl-1,2,4-triazin-3-yl)hydrazineylidene)methyl)phenoxy)methyl)-1H-1,2,3-triazol-1-yl)acetamide] | – | 53.4 | 74.73 | 84 | 98 | 11.7 | 11.7 ± 0.18 | 100 | – | – | – | – | – | –
O=C(Cn1cc(COc2ccc(-c3nc4ccccc4[nH]3)cc2)nn1)Nc1ccc(Cl)cc1 [B (R = 4-Cl, n = 0)] | 91.6 | – | – | – | – | – | – | – | – | – | – | – | – | –
O=C(Cn1cc(COc2ccc(/C=N/Nc3nnc(-c4ccccc4)c(-c4ccccc4)n3)cc2)nn1)Nc1ccc(Br)cc1 [Compound 13k, (E)-N-(4-Bromophenyl)-2-(4-((4-((2-(5,6-diphenyl-1,2,4-triazin-3-yl)hydrazineylidene)methyl)phenoxy)methyl)-1H-1,2,3-triazol-1-yl)acetamide] | – | 49.91 | 56.12 | 60 | 65 | 15.3 | 15.3 ± 0.29 | 69 | 67 | – | – | – | – | –
CCc1ccc(NC(=O)Cn2cc(COc3ccc(/C=N/Nc4nnc(-c5ccccc5)c(-c5ccccc5)n4)cc3)nn2)cc1 [Compound 13e, (E)-2-(4-((4-((2-(5,6-Diphenyl-1,2,4-triazin-3-yl)hydrazineylidene)methyl)phenoxy)methyl)-1H-1,2,3-triazol-1-yl)-N-(4-ethylphenyl)acetamide] | – | 69.6 | 82.93 | 95 | – | < 15 | – | 100 | – | – | – | – | – | around 3 fold
Cc1ccccc1NC(=O)Cn1cc(COc2ccc(/C=N/Nc3nnc(-c4ccccc4)c(-c4ccccc4)n3)cc2)nn1 [Compound 13b, (E)-2-(4-((4-((2-(5,6-Diphenyl-1,2,4-triazin-3-yl)hydrazineylidene)methyl)phenoxy)methyl)-1H-1,2,3-triazol-1-yl)-N-(o-tolyl)acetamide] | – | 54.87 | 67 | 83 | 93 | 12.5 | 12.5 ± 0.21 | 98 | – | 15.6 | – | – | – | –
Cc1ccc(NC(=O)Cn2cc(COc3ccc(/C=N/Nc4nnc(-c5ccccc5)c(-c5ccccc5)n4)cc3)nn2)c(C)c1 [Compound 13d, (E)-N-(2,4-Dimethylphenyl)-2-(4-((4-((2-(5,6-diphenyl-1,2,4-triazin-3-yl)hydrazineylidene)methyl)phenoxy)methyl)-1H-1,2,3-triazol-1-yl)acetamide] | – | 61.12 | 65.17 | 68 | 72 | < 15 | – | 75 | 74 | – | – | – | – | –
